This is an account of results in patent publication US6828450B2, “Triptycene analogs” (Kansas State University Research Foundation, priority 2000, dated 2004).

Series [1] concerns L1210 cells. Put plainly: L1210 tumor cell proliferation assay (Coulter counter). The settings on record: for concentration giving almost total (maximal) inhibition of proliferation and viability: growth and viability; for pIC50: read-out: IC50, inhibition of L1210 cell proliferation; for inhibition at 0.041 µM: read-out: % inhibition of L1210 cell proliferation. As to the method: FIG. 1. […] For tumor cell growth and viability, L1210 cells were respectively seeded in triplicate at initial densities of 1×10^4 and 1.11×10^4 cells/0.5 ml/well in RPMI 1640 medium containing 7.5% FCS and penicillin (100 IU/ml)-streptomycin (100 μg/ml), and grown for 4 days in the presence or absence (control) of 256 nM concentrations of the indicated compounds in a humidified incubator at 37° C. with 5% CO2 in air. Cell density was monitored using a Coulter counter. […] The ability of viable cells/0.5 ml to bioreduce 0.1 ml of MTS:PMS (20:1) reagent over a 3-h incubation period at 37° C. was assessed by measuring the absorbamce of the water-soluble formazan products at A490 nm.
FIG. 3. […] The protocol of the experiment was identical to that of FIG. 1. […] Drug concentrations are plotted on a logarithmic scale.
TT0 was purchased from Aldrich (Milwaukee, Wis.). All solutions of synthetic TTs and tricyclic pyrone H10, vincristine (VCR; a gift from Lilly Researeh Laboratories, Indianapolis, Ind.) and camptothecin (CPT; from Sigma Chemical Co., St Louis, Mo.) were dissolved and diluted in dimethyl sulfoxide (DMSO), whereas daunomycin (DAU) (from Sigma) solutions were prepared in 0.1 M potassium phosphate buffer, pH 7.4, containing 0.9% NaCl. Suspension cultures of murine L1210 lymphocytic leukemia cells (American Type Culture Collection, Rockville, Md.) were maintained in continuous exponential growth by twice-a-week passage in RPMI 1640 medium supplemented with 7.5% fortified bovine calf serum (FCS; HyClone Laboratories, Logan, Utah) and penicillin (100 IU/ml)-streptomycin (100 μg/ml), and incubated in the presence or absence of drugs at 37° C. in a humidified atmosphere containing 5% CO2. […] Control cells incubated in the absence of drugs were similarly treated with vehicle only and, in every experiment, all incubates received the same volume of solvent. For drug removal, incubates were spun at 200×g for 10 min, drug-containing supernatants were discarded, and intact cells were washed thrice with 1 ml of the above RPMI 1640 culture medium and resuspended in 0.5 ml of fresh medium for further incubation.
For tumor cell growth, L1210 cells were resuspended in fresh FCS-containing RPMI 1640 medium, plated at an initial density of 1×10^4 cells/0.5 ml, and incubated in 48-well Costar cell culture plates (Costar, Cambridge, Mass.). Except when otherwise specified, cells were grown for 4 days in the presence or absence of drugs and their density was monitored every 24 h using a Coulter counter (Coulter Electronics, Luton Beds, UK).

Series [2] deals with L1210 cells. Description: Nucleoside transport (30-sec cellular uptake) in L1210 cells. Format: cell-based, murine. As to the method: FIG. 10. Concentration-dependent inhibition of nucleoside transport by the TT analog TT2 in L1210 cells in vitro. […] After washing thrice with PBS, intact cell pellets were harvested by centrifugation, incubated for 30 min in 1 ml of HLB containing 0.2% Triton X-100, and these lysates were mixed with scintillation cocktail and counted to estimate the cellular uptake of ^3H-thymidine. Results are expressed as % of ^3H-thymidine transported into vehicle-treated control cells over 30 sec (15,031±872 cpm; 100±6%; striped area).
FIG. 11. Comparison of the inhibitory effects of novel TT analogs on DNA synthesis (open) and nucleoside transport (striped) in L1210 cells in vitro. The cellular uptake of ^3H-thymidine (striped) and the rate of ^3H-thymidine incorporation into DNA (open) were determined in cells (1.38×10^6/0.5 ml of RPMI 1640 medium) respectively preincubated at 37° C. for 15 or 90 min in the presence or absence (control) of 7 μM concentrations of the indicated compounds. For the cellular transport of nucleosides, preincubated cells were then exposed to 1 μCi of ^3H-thymidine for 30 sec at 37° C. Results are expressed as % of ^3H-thymidine transported into vehicle-treated control cells over 30 sec (15,539±1,767 cpm; 100±11%; striped control). For DNA synthesis, preincubated cells were then pulse-labeled with 1 μCi of ^3H-thymidine for an additional 30 min at 37° C. Results are expressed as % of ^3H-thymidine incorporation into DNA in vehicle-treated control cells over 30 min (28,505±2,594 cpm; 100±9%; open control). The blank value (1,075±171 cpm) for cells incubated and pulse-labeled at 2° C. with 1 μCi of ^3H-thymidine has been substracted from the results. Bars: means±SD (n=3). ^aNot different from TT3, TT7, TT9 and TT11; ^bP<0.01, smaller than TT1 but not different from TT13; ^cnot different from control; ^dP<0.025, greater than TT1; ^eP<0.05, smaller than control.
FIG. 12. Irreversibility of the inhibitory effects of the novel TT analog TT2 on DNA synthesis (open) and nucleoside transport (striped) in L1210 cells in vitro. […] The cellular uptake of ^3H-thymidine (striped) and the rate of ^3H-thymidine incorporation into DNA (open) were determined in cells (1.64×10^6/0.5 ml of RPMI 1640 medium) respectively preincubated at 37° C. for 15 or 60 min in the presence or absence (control) of 10 and 25 μM TT2 or 25 μM H10. The protocol of the experiments and the determination of the results were identical to those of FIGS. 9 and 10, except that, after preincubation, either the drugs were maintained in the culture medium (+) or the cells were spun, washed, and resuspended in fresh medium in order to remove the drugs (−). After preincubation, vehicle-treated controls were similarly spun and washed. For the cellular transport of nucleosides, preincubated cells were then exposed, in the presence (+) or absence (−) of TT2 or H10, to 1 μCi of ^3H-thymidine for 30 sec at 37° C. Results are expressed as % of ^3H-thymidine transported into vehicle-treated control cells over 30 sec (11,054±754 cpm; 100±7%; striped control+; 14,486±1,260 cpm; 100±9%; striped control−). For DNA synthesis, preincubated cells were then pulse-labeled with 1 μCi of ^3H-thymidine for an additional 30 min at 37° C. in the presence (+) or absence (−) of TT2 or H10. Results are expressed as % of ^3H-thymidine incorporation into DNA in vehicle-treated control cells over 30 min (34,052±1,566 cpm; 100±5%; open control+; 28,811±2,506 cpm; 100±9%; open control−). The blank value (1,328±86 cpm) for cells incubated and pulse-labeled at 2° C. with 1 μCi of ^3H-thymidine has been substracted from the results. Bars: means±SD (n=3).
L1210 cells (about 1.5×10^6 cells/0.5 ml) were preincubated for 15 min at 37° C. in the presence or absence of TTs and then exposed to 1 μCi of ^3H-thymidine for only 30 sec to assess the cellular uptake of nucleoside over such very short period of time. […]

pIC50: −log10 of the molar value. Entries after “also recorded” stand apart in the source; their conditions may differ. Like-named read-outs stand apart in the source and are kept apart here. Some results are limits rather than exact numbers.

For the compound `COC(=O)C1=C(C(=O)OC)C[C@H]2[C@@H](C1)[C@@H](O)C1=C(C3C4=C(C1c1ccccc13)[C@@H](O)[C@H]1CC(C(=O)OC)=C(C(=O)OC)C[C@H]1[C@H]4O)[C@H]2O` [TT12, (4aS*,5S*,7R*,12S*,14R*,7aR*,11aS*,14aR*)-Tetramethyl 1,4,4a,5,6,7,7a,8,11,11a,12,13,14,14a-tetradecahydro-5,7,12,14-tetrahydroxy-6,13-[1′,2′]benzenopentacene-2,3,9,10-tetracarboxylate], in the series on L1210 cells [1] (256 nM, 4 days), the “inhibitory effect on L1210 cell growth” value was “inactive”. In addition, in the series with L1210 cells [2] (7 μM, 15 min), the “effect on nucleoside transport” value is given as “alter neither”.

As for `COC1=CC(=O)C2=C(C1=O)C1C3=C(C(=O)C=CC3=O)C2c2ccccc21` (stereo not drawn) [TT2, 2-Methoxy-9,10-dihydro-9,10-[1′,2′]benzenoanthracene-1,4,5,8-tetraone], the “times DAU is more cytostatic/cytotoxic than TT2” value with L1210 cells [1] was 3.5-6 times. In addition, the “% inhibition of L1210 cell proliferation” value in the series with L1210 cells [1] (256 nM TT2, day 2) is 44%. The “% inhibition of L1210 cell growth (cytostatic)” value in the series on L1210 cells [1] (256 nM, 4 days, 0.256 µM) is 68%. Also, the “concentration giving almost total (maximal) inhibition of proliferation and viability” value with L1210 cells [1] (day 4) is listed as not below 640 nM. Besides, the pIC50 is 6.52 with L1210 cells [1] (day 2); 6.82 with L1210 cells [1] (day 4); 5.22 with L1210 cells [2] (15-min pretreatment, 30-sec uptake, read-out: IC50, inhibition of cellular transport of nucleosides). The “% inhibition of nucleoside transport” value was 67% in the series with L1210 cells [2] (10 μM TT2, 15-min preincubation) and 93% in the series with L1210 cells [2] (25 μM TT2, 15-min preincubation). Also, the “effect on nucleoside transport” value in the series on L1210 cells [2] (25 μM TT2) is on record as “totally inhibited”. For the same compound, the “reversibility of the inhibition of nucleoside transport upon drug removal” value in the series on L1210 cells [2] (10 and 25 μM TT2 or 25 μM H10, 15-min preincubation) is given as “irreversible”.

As to `COC(=O)C1=C(C(=O)OC)C[C@H]2C(=O)C3=C(C(=O)[C@H]2C1)C1C2=C(C(=O)[C@H]4CC(C(=O)OC)=C(C(=O)OC)C[C@H]4C2=O)C3c2ccccc21` [TT4, (4aS*,7aR*,11aS*,14aR*)-Tetramethyl 1,4,4a,5,6,7,7a,8,11,11a,12,13,14,14a-tetradecahydro-5,7,12,14-tetraoxo-6,13-[1′,2′]benzenopentacene-2,3,9,10-tetracarboxylate], in the series on L1210 cells [1] (256 nM, 4 days), the “inhibitory effect on L1210 cell growth” value was “inactive”. In the series on L1210 cells [2] (7 μM, 15 min), the “effect on nucleoside transport” value is recorded as “alter neither”.

Take `COC1=C(Br)C(=O)C2=C(C1=O)C1C3=C(C(=O)C=C(N(C)C)C3=O)C2c2ccccc21` (stereo not drawn) [TT16, 2-Bromo-3-methoxy-6-(dimethylamino)-9,10-dihydro-9,10-[1′,2′]benzenoanthracene-1,4,5,8-tetraone]: the “potency on cellular transport of adenosine and thymidine compared with TT2” value in the series with L1210 cells [2] (FIG. 13) is on record as “as potent as TT2”.

As to `COc1cccc2c1C(=O)c1c(O)c3c(c(O)c1C2=O)C[C@@](O)(C(C)=O)C[C@@H]3O[C@H]1C[C@H](N)[C@H](O)[C@H](C)O1` [DAU, daunomycin, reference compound], the “times DAU is more cytostatic than TT2” value with L1210 cells [1] (L1210, from IC50 values) is “about 6 times”. The “times DAU is more cytostatic/cytotoxic than TT2” value in the series on L1210 cells [1] (L1210, growth and viability, 4 days) is recorded as 3.5-6 times. Besides, in the series with L1210 cells [1] (Mus musculus, L1210, 48 h), the inhibition at 0.041 µM worked out at 42% and the pIC50 was 7.30. In addition, in the series on L1210 cells [1] (Mus musculus, L1210, 96 h), the inhibition at 0.041 µM worked out at 77% and the pIC50 was 7.60. For the same compound, the “concentration giving almost total (maximal) inhibition of proliferation and viability” value in the series on L1210 cells [1] (day 4) is recorded as 102 nM. In the series with L1210 cells [2] (15-min treatment, 30-sec uptake, 10 μM DAU), the “effect of DAU on cellular transport of nucleosides” value is “inactive; also recorded: totally unable”.
